Here are results for 24 compounds from patent US20210300940A1 (Merck Patent GmbH, priority 2018, published 2021).

In one assay the target is T1, TLR7 (Homo sapiens, UniProt Q9NYK1).
T1 construct: expressed in transfected cells; host or cells: HEK/293 cells carrying TLR7 and an NF-kB luciferase reporter
T1 sequence (Q9NYK1 27-1049): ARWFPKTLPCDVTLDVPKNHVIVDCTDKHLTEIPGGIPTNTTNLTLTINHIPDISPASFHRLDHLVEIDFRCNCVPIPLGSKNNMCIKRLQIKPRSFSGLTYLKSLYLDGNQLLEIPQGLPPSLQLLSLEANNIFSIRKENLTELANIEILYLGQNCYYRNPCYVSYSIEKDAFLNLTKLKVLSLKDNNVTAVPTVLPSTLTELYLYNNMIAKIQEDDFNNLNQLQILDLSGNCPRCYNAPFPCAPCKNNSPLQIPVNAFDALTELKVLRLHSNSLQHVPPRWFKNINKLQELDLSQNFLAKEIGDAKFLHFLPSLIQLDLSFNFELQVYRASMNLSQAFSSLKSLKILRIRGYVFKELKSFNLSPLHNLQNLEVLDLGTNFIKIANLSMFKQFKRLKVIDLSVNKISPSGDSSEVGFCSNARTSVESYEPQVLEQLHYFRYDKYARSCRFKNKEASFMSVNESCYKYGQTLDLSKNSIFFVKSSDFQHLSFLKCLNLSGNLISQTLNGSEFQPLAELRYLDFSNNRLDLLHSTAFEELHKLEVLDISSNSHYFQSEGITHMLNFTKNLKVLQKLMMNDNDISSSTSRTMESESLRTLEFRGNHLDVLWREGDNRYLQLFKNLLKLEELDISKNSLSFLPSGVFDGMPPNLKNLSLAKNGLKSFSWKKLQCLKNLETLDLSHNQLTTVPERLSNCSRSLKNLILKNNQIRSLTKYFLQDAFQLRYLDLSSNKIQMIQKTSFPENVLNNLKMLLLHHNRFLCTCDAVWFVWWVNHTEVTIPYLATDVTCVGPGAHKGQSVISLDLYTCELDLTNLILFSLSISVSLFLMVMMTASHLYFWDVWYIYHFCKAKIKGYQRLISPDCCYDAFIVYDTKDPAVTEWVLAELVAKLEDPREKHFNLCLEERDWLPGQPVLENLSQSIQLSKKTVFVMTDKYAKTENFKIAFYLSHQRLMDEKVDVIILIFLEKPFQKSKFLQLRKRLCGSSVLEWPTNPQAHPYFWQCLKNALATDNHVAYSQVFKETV
The assay can be described thus: HEK/293 TLR7 Cell Assay. The following applies: TLR7/NFKb HEK cells, R848 agonist 10 uM final concentration, Steady-Glo readout; read-out: TLR7 potency. The assay is classed as cell-based. The procedure:
(§1) Example 389: HEK/293 TLR7 Cell Assay Into 384 CulturePlates (Corning 3765) was placed 5000 c/w of TLR7/NFKb HEK cells in 30 uL DMEM without Phenol red (gibco #31053-028) and 10% heat inactivated fetal bovine serum, 10% penicillin-streptomycin, and 2 mM L-Glutamine. The cells were incubated for 24 h at 37° C., 10% carbon dioxide and 90% relative humidity. 3 uL of controls, standards, and compounds were dispensed into wells, incubated for 30 min then 3 uL of R848 agonist (10 uM final concentration) was added in 20 mM Hepes. After incubation for 5 hours, they were allowed to stand at room temperature for 15 min. To this was added 10 uL of Steady-Glo substrate reagent and shake assay plate for 5 min at 1500 rpm. The assay plate was allowed to sit for 30 min at room temperature and then the plate was read on EnVision.

Another assay concerns the target T2, TLR8 (Homo sapiens, UniProt Q9NR97).
T2 construct: expressed in transfected cells; host or cells: HEK/293 reporter cells (NF-kB luciferase)
T2 sequence (Q9NR97 27-1041): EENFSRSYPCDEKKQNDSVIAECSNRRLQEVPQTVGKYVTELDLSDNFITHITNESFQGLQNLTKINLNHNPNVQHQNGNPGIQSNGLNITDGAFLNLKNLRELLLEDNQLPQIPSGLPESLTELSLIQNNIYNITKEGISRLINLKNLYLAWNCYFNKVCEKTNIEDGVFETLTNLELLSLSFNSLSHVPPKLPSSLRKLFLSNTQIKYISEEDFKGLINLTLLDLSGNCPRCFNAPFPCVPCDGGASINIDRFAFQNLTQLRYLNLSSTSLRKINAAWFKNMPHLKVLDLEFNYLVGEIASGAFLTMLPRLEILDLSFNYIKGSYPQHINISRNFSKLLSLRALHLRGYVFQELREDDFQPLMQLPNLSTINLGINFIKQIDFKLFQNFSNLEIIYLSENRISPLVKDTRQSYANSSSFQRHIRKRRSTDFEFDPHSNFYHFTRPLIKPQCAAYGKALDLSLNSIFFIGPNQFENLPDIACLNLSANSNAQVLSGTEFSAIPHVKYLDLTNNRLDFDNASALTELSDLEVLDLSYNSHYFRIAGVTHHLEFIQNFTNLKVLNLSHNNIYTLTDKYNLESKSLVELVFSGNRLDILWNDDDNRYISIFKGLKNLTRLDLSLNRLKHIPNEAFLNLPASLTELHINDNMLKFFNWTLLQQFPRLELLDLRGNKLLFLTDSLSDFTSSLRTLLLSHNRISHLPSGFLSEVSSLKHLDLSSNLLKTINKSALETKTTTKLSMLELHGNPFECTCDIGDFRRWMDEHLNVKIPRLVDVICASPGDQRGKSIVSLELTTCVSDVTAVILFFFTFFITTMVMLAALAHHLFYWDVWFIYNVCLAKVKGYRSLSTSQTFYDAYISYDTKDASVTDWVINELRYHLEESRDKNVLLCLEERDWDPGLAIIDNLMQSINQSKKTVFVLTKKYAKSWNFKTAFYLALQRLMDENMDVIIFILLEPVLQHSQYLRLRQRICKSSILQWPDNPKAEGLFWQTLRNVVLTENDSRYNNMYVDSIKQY
The assay is described as follows: HEK/293 TLR8 Cell Assay. Conditions: HEK cells, R848 agonist 30 uM final concentration, Steady-Glo readout; read-out: TLR8 potency. Type of assay: cell-based. The procedure:
as §1, with “Example 390:” for “Example 389:”, “HEK/293 TLR8” for “HEK/293 TLR7”, “serum, 1%” for “serum, 10%”, “agonist (30” for “agonist (10”

With `C[C@@H](C(=O)N[C@@H]1C[C@H](C(F)(F)F)CN(c2ccc(C#N)c3nccnc23)C1)N1CCN(C)CC1` (single isomer, unassigned) [Example 99], the IC50 is 75 to 150 nM on TLR7 and below 75 nM at TLR8.
In the same order, the values of `CC(C(=O)N[C@@H]1C[C@H](C(F)(F)F)CN(c2ccc(C#N)c3ncccc23)C1)N1CCN(C)CC1` (single isomer, unassigned) [Example 100] are 75 to 150 nM and below 75 nM.
The matching figures for `C[C@@H](C(=O)N[C@@H]1C[C@H](C(F)(F)F)CN(c2ccc(C#N)c3ncccc23)C1)N1CCN(C)CC1` (single isomer, unassigned) [Example 101]: below 75 nM and below 75 nM.
The matching figures for `CC(C(=O)N[C@@H]1C[C@H](C)CN(c2ccc(C#N)c3nccnc23)C1)N1CCC(O)CC1` (single isomer, unassigned) [Example 102]: below 75 nM and below 75 nM.
Consider `C[C@H]1C[C@@H](NC(=O)[C@@H](C)N2CCC(O)CC2)CN(c2ccc(C#N)c3nccnc23)C1` (single isomer, unassigned) [Example 103], for which the IC50 at TLR7 is above 150 nM; on TLR8 it was below 75 nM.
The matching figures for `CC(C(=O)N[C@@H]1C[C@H](C)CN(c2ccc(C(F)(F)F)c3ncccc23)C1)N1CCC(O)CC1` (single isomer, unassigned) [Example 104]: below 75 nM and below 75 nM.
The matching figures for `C[C@H]1C[C@@H](NC(=O)[C@@H](C)N2CCC(O)CC2)CN(c2ccc(C(F)(F)F)c3ncccc23)C1` (single isomer, unassigned) [Example 105]: above 150 nM and below 75 nM.
In the same order, the values of `N#Cc1ccc(N2C[C@H](NC(=O)C3(F)CCNC3)C[C@H](C(F)(F)F)C2)c2cccnc12` (single isomer, unassigned) [Example 163] are below 75 nM and below 75 nM.
With `N#Cc1ccc(N2C[C@H](NC(=O)[C@@]3(F)CCNC3)C[C@H](C(F)(F)F)C2)c2cccnc12` (single isomer, unassigned) [Example 164], the IC50 on TLR7 and at TLR8 was 75 to 150 nM in each case.
On to `N#Cc1ccc(N2C[C@H](N)CC(F)(F)C2)c2cccnc12` (single isomer, unassigned) [Example 197], for which the IC50 on TLR7 and on TLR8 was below 75 nM in each case.
With `N#Cc1ccc(N2C[C@H](N)CC(F)(F)C2)c2cccnc12` (single isomer, unassigned) [Example 198], the IC50 at TLR7 and at TLR8 was above 150 nM in each case.
As to `C[C@@H]1CN(c2ccc(C#N)c3nccnc23)C[C@H](CSC[C@H](O)CO)O1` (single isomer, unassigned) [Example 229], the IC50 at TLR7 was 75 to 150 nM; at TLR8, below 75 nM.
In the same order, the values of `C[C@@H]1CN(c2ccc(C#N)c3nccnc23)C[C@H](CSC[C@@H](O)CO)O1` (single isomer, unassigned) [Example 230] are below 75 nM and below 75 nM.
With `C[C@@H]1CN(c2ccc(C#N)c3nccnc23)C[C@H](C(=O)NC[C@H](O)CN(C)C)O1` (single isomer, unassigned) [Example 261], the IC50 at TLR7 and at TLR8 was below 75 nM throughout.
On to `C[C@@H]1CN(c2ccc(C#N)c3nccnc23)C[C@H](C(=O)NC[C@@H](O)CN(C)C)O1` (single isomer, unassigned) [Example 262], for which the IC50 at TLR7 and at TLR8 was below 75 nM throughout.
As to `C[C@@H]1CN(c2ccc(C#N)c3nccnc23)C[C@H](C(=O)NC[C@H]2COCCN2C)O1` (single isomer, unassigned) [Example 263], the IC50 at TLR7 and at TLR8 was below 75 nM each time.
Consider `C[C@@H]1CN(c2ccc(C#N)c3nccnc23)C[C@H](C(=O)NC[C@@H]2COCCN2C)O1` (single isomer, unassigned) [Example 264], for which the IC50 at TLR7 and at TLR8 was below 75 nM each time.
As to `C[C@@H](O)CNC(=O)[C@H]1CN(c2ccc(C#N)c3nccnc23)C[C@@H](C(F)(F)F)O1` (single isomer, unassigned) [Example 278], the IC50 at TLR7 and at TLR8 was above 150 nM each time.
For the compound `C[C@@H](O)CNC(=O)[C@@H]1CN(c2ccc(C#N)c3nccnc23)C[C@H](C(F)(F)F)O1` (single isomer, unassigned) [Example 279], the IC50 on TLR7 is 75 to 150 nM; on TLR8, above 150 nM.
In the same order, the values of `N#Cc1ccc(N2C[C@@H](C(F)(F)F)O[C@@H](C(=O)NC[C@H](O)CO)C2)c2nccnc12` (single isomer, unassigned) [Example 280] are 75 to 150 nM and above 150 nM.
In the same order, the values of `N#Cc1ccc(N2C[C@@H](C(=O)NC[C@H](O)CO)O[C@@H](C(F)(F)F)C2)c2nccnc12` (single isomer, unassigned) [Example 281] are above 150 nM and above 150 nM.
In the case of `N#Cc1ccc(N2C[C@@H](C(F)(F)F)O[C@@H](C(=O)NC[C@@H](O)CO)C2)c2nccnc12` (single isomer, unassigned) [Example 282], the IC50 was 75 to 150 nM at TLR7 and above 150 nM on TLR8.
The matching figures for `N#Cc1ccc(N2C[C@@H](C(=O)NC[C@@H](O)CO)O[C@@H](C(F)(F)F)C2)c2nccnc12` (single isomer, unassigned) [Example 283]: above 150 nM and above 150 nM.
In the same order, the values of `CC(C)(O)CNC(=O)[C@H]1CN(c2ccc(C#N)c3nccnc23)C[C@@H](C(F)(F)F)O1` (single isomer, unassigned) [Example 284] are below 75 nM and 75 to 150 nM.
